≈ marks a conversion by molar mass, not a printed value. Marks after values point to notes of the source that are not given here. *1 amine or outer side, *2 acyl side, *3 side chain or, on linkers, in order; H or OH if unused. Where a SMILES comes first, the peptide text is derived from it. Bridges are numbered along the chain shown (N, C = ends). CH2 = C([*:1])[*:2]
What was measured:
[1] = Solubility in buffer by HPLC; type: physicochemical; details: in buffer, determined by HPLC; for solubility: read-out: Buffer Solubility
Method: Soluble peptides were synthesized on Rink resin, cleaved and cyclized as described previously. Peptide purity (at least 95%) and solubility were verified by high-performance liquid chromatography and correct mass was verified by MS analysis. ALogP calculations are from. Peptides were prepared as 5 mM stocks in DMSO.

RGS4 [2] = biological target: T1, RGS4 (Rattus norvegicus, UniProt P49799); assay: FCPIA (flow cytometry protein interaction assay), RGS4-Gαo interaction, wild type RGS4 (MBP-RGS4Δ51N); type: binding
T1 construct: made in house
T1 sequence (P49799 52-205 limits assumed): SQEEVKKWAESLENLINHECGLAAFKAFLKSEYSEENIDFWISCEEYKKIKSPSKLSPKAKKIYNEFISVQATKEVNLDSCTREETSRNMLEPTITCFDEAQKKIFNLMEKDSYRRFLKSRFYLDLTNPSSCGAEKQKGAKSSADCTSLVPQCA
Method: (§1) We recently described a bead-based screen in which 2.5 × 10^6 different peptide sequences were prepared as a OBOC library. Fluorescently labeled RGS4 was used to probe the library for peptides that bind RGS4 [5]. […] Since the majority of those hit peptides could bind tightly to the RGS without disrupting GAP activity, they were also tested in the flow cytometry protein interaction assay (FCPIA) (Figure 1), which measures the interaction between RGS4 and Gαo. In this method we used a Luminex flow cytometer to detect the binding of Alexa Fluor 532-labeled Gαo to biotinylated RGS4 on avidin beads in the presence of AMF (AlCl3, MgCl2, NaF and GDP) to put the Gα subunit into a transition state-like conformation. Peptides were tested at 50 μM except where limited by solubility (Table 1).
Figure 1 Hit peptides in the FCPIA. Hit peptides from Roof, et al. 2008 were tested at 50 μM unless otherwise indicated for ability to disrupt the RGS4-Gαo interaction as described using 25 nM Gα o-Alexa Fluor-532 and 5 nM wild type RGS4-biotin (mean ± S.E.M., n ≥ 3) *p < 0.05, **p < 0.01, ***p < 0.001 compared to no peptide.
(§2) Proteins were expressed, purified and labeled as described previously. The mutagenesis was done using the "QuickChange Multi Site-Directed Mutagenesis Kit" from Stratagene according to the manufacturer's protocol. The construct of RGS4 used in these studies is a maltose binding protein (MBP-) fusion protein of the RGS4 sequence from which the amphipathic N-terminal helix has been removed (i.e. MBP-RGS4Δ51N). For simplicity in the text, this will be referred to as RGS4. All other RGS proteins were human sequences and were used as Mpb fusions: RGS7 RGS domain (aa: 305–453), RGS8 full length, RGS16 full length, and RGS19ΔC11 (amino acids 1–209). To cleave RGS4Δ51N from the MBP-His6 construct for MS analysis, MBP-His6-RGS4Δ51N was treated with 15% MBP-His6-TEV protease S219V [11] for 22 hours at 4°C and purified over a Ni-NTA column.
FCPIA was performed as previously published.

RGS4 [3] = biological target: T1, RGS4; assay: as above; type: binding; details: peptide 100 μM
RGS8 [4] = biological target: T2, RGS8 (Homo sapiens, UniProt P57771); assay: FCPIA, Gαo binding to RGS8; details: no wash, read-out: percent inhibition, RGS8
T2 construct: RGS8 full length; made in house
T2 sequence (P57771 1-180): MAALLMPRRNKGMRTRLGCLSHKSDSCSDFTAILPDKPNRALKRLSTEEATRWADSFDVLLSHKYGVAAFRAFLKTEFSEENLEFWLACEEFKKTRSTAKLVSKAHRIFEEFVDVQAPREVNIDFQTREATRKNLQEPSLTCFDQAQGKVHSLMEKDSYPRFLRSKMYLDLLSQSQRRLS
Method: as §1
5nd inhibited Gαo binding to a number of different RGS proteins (Figure 2). […] RGS19 and RGS7 are in the RZ and R7 families, respectively and show less inhibition by 5nd. Linear as well as bridged versions of peptide 5 were tested in the FCPIA since cyclization yields would most likely have been less then 100% in the synthesis of the library leaving some linear peptides present on each bead. […] This may be due to lack of structural rigidity necessary for the correct interaction of the peptide with the RGS protein or a role for chemical reactivity of the disulfide.
Figure 2 Characterization of hit 5. A) and B) Dose response curves for 5nd in the FCPIA with different RGS proteins (RGS Family), (mean ± S.E.M., n = 3) *p < 0.05, **p < 0.01, ***p < 0.001 compared to RGS4 at the same 5nd concentration. C) Peptides were tested at 50 μM as in Figure 1, (mean ± S.E.M., n ≥ 3) *p < 0.05, **p < 0.01, ***p < 0.001 compared to no peptide.
Figure 3 Irreversibility experiments. RGS-biotin on avidin beads was treated with 5nd (100 μM) or 5nm (100 μM) and then washed in buffer (with or without 1 mM DTT) or not washed and put in the FCPIA using RGS4 (A) or RGS8 (B) (mean ± S.E.M., n ≥ 2) *p < 0.05, **p < 0.01, ***p < 0.001 compared to no peptide (100%); #p < 0.05, ##p < 0.01, ###p < 0.001 compared to 5nd no wash.
as §2, with “To cleave RGS4Δ51N from the MBP-His6 construct for MS analysis, MBP-His6-RGS4Δ51N was treated with 15% MBP-His6-TEV protease S219V [11] for 22 hours at 4°C and purified over a Ni-NTA column.” left out

RGS8 [5] = biological target: T2, RGS8; parameters: method as in earlier work; details: David Roman, in preparation; cited from earlier work
[6] = peptide 50 μM, 25 nM Gαo-Alexa Fluor-532, 5 nM RGS4-biotin

SMILES | solubility [1] [µM] | % Inhibition of RGS4-Gαo (RGS4 [2]; [6]) | also measured
NCCCC[C@H](N)C(=O)N[C@@H](Cc1c[nH]cn1)C(=O)N[C@H]1CSSC[C@@H](C(=O)N[C@@H](Cc2ccc(O)cc2)C(N)=O)NC(=O)[C@H](Cc2ccccc2)NC(=O)CNC(=O)[C@H](Cc2ccc(O)cc2)NC1=O [Peptide 6nd, KHCYGFCY-NH2] (H-KHCYGFCY-NH2; disulfide 3-7) |  |  | Buffer Solubility [1]: Low; % Inhibition of RGS4-Gαo (RGS4 [2]; peptide 25 μM): 23 ± 15 (25 μM) * %
CC(C)C[C@H](NC(=O)CNC(=O)[C@H](CCCCN)NC(=O)[C@H](CS)NC(=O)[C@H](Cc1c[nH]c2ccccc12)NC(=O)[C@@H](N)Cc1ccc(O)cc1)C(=O)N[C@@H](CS)C(=O)N[C@@H](CCCCN)C(N)=O [Peptide 5nl, YWCKGLCK-NH2] (H-YWCKGLCK-NH2) | 465 (≈ 465 µg/mL) |  | 
CC(=O)N[C@@H](Cc1ccc(O)cc1)C(=O)N[C@@H](Cc1c[nH]c2ccccc12)C(=O)N[C@@H](CS)C(=O)N[C@@H](CCCCN)C(=O)NCC(=O)N[C@@H](CC(C)C)C(=O)N[C@@H](CS)C(=O)N[C@@H](CCCCN)C(N)=O [Peptide 5al, Ac-YWCKGLCK-NH2] (Ac-YWCKGLCK-NH2) | 460 (≈ 479 µg/mL) |  | 
C[C@@H](O)[C@@H]1NC(=O)CNC(=O)[C@H](Cc2ccccc2)NC(=O)[C@@H](NC(=O)[C@@H](NC(=O)CN)[C@@H](C)O)CSSC[C@@H](C(=O)N[C@@H](Cc2c[nH]c3ccccc23)C(N)=O)NC1=O [Peptide 2nd, GTCFGTCW-NH2] (H-GTCFGTCW-NH2; disulfide 3-7) | 464 (≈ 404 µg/mL) | 19 ± 3** % | 
CC(C)C[C@H](N)C(=O)N[C@H](C(=O)N[C@H]1CSSC[C@@H](C(=O)N[C@@H](CCC(N)=O)C(N)=O)NC(=O)[C@H](Cc2ccc(O)cc2)NC(=O)CNC(=O)[C@H](CCCCN)NC1=O)C(C)C [Peptide 3nd, LVCKGYCQ-NH2] (H-LVCKGYCQ-NH2; disulfide 3-7) | ≥ 470 | 12 ± 2% | 
CSCC[C@@H]1NC(=O)[C@@H](NC(=O)[C@@H](NC(=O)[C@H](CCCCN)NC(C)=O)C(C)C)CSSC[C@@H](C(=O)N[C@H](C(N)=O)[C@@H](C)O)NC(=O)CNC(=O)CNC1=O [Peptide 4ad, Ac-KVCMGGCT-NH2] (Ac-KVCMGGCT-NH2; disulfide 3-7) | 459 (≈ 384 µg/mL) | 9 ± 6% | 
CSCC[C@@H]1NC(=O)[C@@H](NC(=O)[C@@H](NC(=O)[C@@H](N)CCCCN)C(C)C)CSSC[C@@H](C(=O)N[C@H](C(N)=O)[C@@H](C)O)NC(=O)CNC(=O)CNC1=O [Peptide 4nd, KVCMGGCT-NH2] (H-KVCMGGCT-NH2; disulfide 3-7) | ≥ 470 | 4 ± 3% | 
NCCCC[C@H](NC(=O)[C@@H]1CSSC[C@H](NC(=O)[C@H](CC(N)=O)NC(=O)[C@@H](N)Cc2ccc(O)cc2)C(=O)N[C@@H](CCC(N)=O)C(=O)NCC(=O)N[C@@H](CCC(=O)O)C(=O)N1)C(N)=O [Peptide 1nd, YNCQGECK-NH2] (H-YNCQGECK-NH2; disulfide 3-7) | ≥ 420 | 2 ± 4% | 
CC(C)C[C@@H]1NC(=O)CNC(=O)[C@H](CCCCN)NC(=O)[C@@H](NC(=O)[C@H](Cc2c[nH]c3ccccc23)NC(=O)[C@@H](N)Cc2ccc(O)cc2)CSCSC[C@@H](C(=O)N[C@@H](CCCCN)C(N)=O)NC1=O [Peptide 5nm, YWCKGLCK-NH2] (H-YWCKGLCK-NH2; linker 3-7 via CH2) | ≥ 470 |  | % Inhibition of RGS4-Gαo (RGS4 [3]): 3 ± 0.1 (100 μM) %; inhibition at 100 µM (RGS8 [4]): 18 ± 1%
CC(=O)N[C@@H](CCCCN)C(=O)N[C@@H](Cc1c[nH]cn1)C(=O)N[C@H]1CSSC[C@@H](C(=O)N[C@@H](Cc2ccc(O)cc2)C(N)=O)NC(=O)[C@H](Cc2ccccc2)NC(=O)CNC(=O)[C@H](Cc2ccc(O)cc2)NC1=O [Peptide 6ad, Ac-KHCYGFCY-NH2] (Ac-KHCYGFCY-NH2; disulfide 3-7) | 421 (≈ 446 µg/mL) | 27 ± 4*** % | 
CC(=O)N[C@@H](Cc1ccc(O)cc1)C(=O)N[C@@H](Cc1c[nH]c2ccccc12)C(=O)N[C@H]1CSSC[C@@H](C(=O)N[C@@H](CCCCN)C(N)=O)NC(=O)[C@H](CC(C)C)NC(=O)CNC(=O)[C@H](CCCCN)NC1=O [Peptide 5ad, Ac-YWCKGLCK-NH2] (Ac-YWCKGLCK-NH2; disulfide 3-7) | 464 (≈ 482 µg/mL) | 37 ± 3*** % | 
CC(=O)N[C@@H](Cc1ccc(O)cc1)C(=O)N[C@@H](CC(N)=O)C(=O)N[C@H]1CSSC[C@@H](C(=O)N[C@@H](CCCCN)C(N)=O)NC(=O)[C@H](CCC(=O)O)NC(=O)CNC(=O)[C@H](CCC(N)=O)NC1=O [Peptide 1ad, Ac-YNCQGECK-NH2] (Ac-YNCQGECK-NH2; disulfide 3-7) | 123 (≈ 121 µg/mL) | 14 ± 6% | 
CC[C@H](C)[C@@H]1NC(=O)CNC(=O)[C@H]([C@@H](C)O)NC(=O)[C@@H](NC(=O)[C@H](CCCCN)NC(=O)[C@@H](NC(C)=O)C(C)C)CSSC[C@@H](C(=O)N[C@@H](CCC(=O)O)C(N)=O)NC1=O [YJ34, Ac-Val-Lys-c [Cys-Thr-Gly-Ile-Cys]-Glu-NH2, S-S, reference compound] (Ac-VKCTGICE-NH2; disulfide 3-7) | 80 (≈ 71.3 µg/mL) |  | % Inhibition of RGS4-Gαo (RGS4 [2]; peptide 40 μM): -17 ± 4 (40 μM) %
CC(=O)NCC(=O)N[C@H](C(=O)N[C@H]1CSSC[C@@H](C(=O)N[C@@H](Cc2c[nH]c3ccccc23)C(N)=O)NC(=O)[C@H]([C@@H](C)O)NC(=O)CNC(=O)[C@H](Cc2ccccc2)NC1=O)[C@@H](C)O [Peptide 2ad, Ac-GTCFGTCW-NH2] (Ac-GTCFGTCW-NH2; disulfide 3-7) | 30 (≈ 27.4 µg/mL) |  | % Inhibition of RGS4-Gαo (RGS4 [2]; peptide 10 μM): 10 ± 4 (10 μM) %
COS(=NS(=O)(=O)c1ccc(Cl)cc1)c1ccc([N+](=O)[O-])cc1 (stereo not drawn) [CCG-4986, methyl N-[(4-chlorophenyl)sulfonyl]-4-nitrobenzenesulfinimidoate] |  |  | activity against RGS8 (RGS8 [5]): no activity
CC(=O)N[C@@H](CC(C)C)C(=O)N[C@H](C(=O)N[C@H]1CSSC[C@@H](C(=O)N[C@@H](CCC(N)=O)C(N)=O)NC(=O)[C@H](Cc2ccc(O)cc2)NC(=O)CNC(=O)[C@H](CCCCN)NC1=O)C(C)C [Peptide 3ad, Ac-LVCKGYCQ-NH2] (Ac-LVCKGYCQ-NH2; disulfide 3-7) | 427 (≈ 407 µg/mL) | 10 ± 3% | 
